# Measurements as given in patent publication US20130303532A1, “IMIDAZOPYRAZINES FOR USE AS MPS-1 AND TKK INHIBITORS IN THE TREATMENT HYPERPROLIFERATIVE DISORDERS” (BAYER INTELLECTUAL PROPERTY GmbH, priority 2010, published 2013).
# Like-named read-outs stand apart in the source and are kept apart here.
# Target: T1, human kinase Mps-1 (Homo sapiens, UniProt P33981)
# T1 construct: N-terminally GST-tagged human full length recombinant Mps-1 kinase; GST (N); purchased Invitrogen, Karslruhe, Germany PV4071
# T1 sequence (P33981 1-857): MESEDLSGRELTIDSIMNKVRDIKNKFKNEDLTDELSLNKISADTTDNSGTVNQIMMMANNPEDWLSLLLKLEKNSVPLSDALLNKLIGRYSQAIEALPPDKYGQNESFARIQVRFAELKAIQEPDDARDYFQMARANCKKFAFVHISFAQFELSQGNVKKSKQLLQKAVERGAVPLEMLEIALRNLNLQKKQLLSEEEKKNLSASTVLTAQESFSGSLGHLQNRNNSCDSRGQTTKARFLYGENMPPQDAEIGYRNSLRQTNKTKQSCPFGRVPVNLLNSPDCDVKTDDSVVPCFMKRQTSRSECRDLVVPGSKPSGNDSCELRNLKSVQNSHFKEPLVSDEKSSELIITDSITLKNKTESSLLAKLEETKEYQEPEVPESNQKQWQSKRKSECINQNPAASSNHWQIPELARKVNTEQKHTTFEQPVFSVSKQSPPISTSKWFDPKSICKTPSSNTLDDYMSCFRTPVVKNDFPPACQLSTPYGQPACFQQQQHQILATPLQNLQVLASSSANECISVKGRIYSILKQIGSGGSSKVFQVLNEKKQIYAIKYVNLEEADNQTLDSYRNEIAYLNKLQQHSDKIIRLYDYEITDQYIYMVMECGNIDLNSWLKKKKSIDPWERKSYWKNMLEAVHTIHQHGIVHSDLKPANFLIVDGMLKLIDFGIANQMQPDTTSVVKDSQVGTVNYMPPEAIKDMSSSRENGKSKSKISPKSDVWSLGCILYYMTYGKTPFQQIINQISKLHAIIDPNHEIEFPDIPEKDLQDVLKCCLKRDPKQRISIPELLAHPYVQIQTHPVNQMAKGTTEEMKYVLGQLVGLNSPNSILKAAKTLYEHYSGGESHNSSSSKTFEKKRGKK
# Test: Mps-1 kinase assay (TR-FRET)
# Format: biochemical
# Details: N-terminally GST-tagged human full length recombinant Mps-1, 10 μM ATP, 1 μM biotinylated peptide substrate, 60 min at 22° C.
IC50 (read-out: Mps1 IC50) [nM],SMILES,IC50 (Mps1 IC50 [nM]) [nM]
–,"CC(C)(O)CNc1nccn2c(-c3ccc(C(=O)NC4CC4)c(O)c3)cnc12 [Example 7-87, N-cyclopropyl-2-hydroxy-4-{8-[(2-hydroxy-2-methylpropyl)amino]imi-dazo[1,2-a]pyrazin-3-yl}benzamide]",160
–,"O=C(NC1CC1)c1ccc(-c2cnc3c(NCc4ccc(Cl)s4)nccn23)cc1O [Example 7-88, 4-(8-{[(5-chlorothiophen-2-yl)methyl]amino}imi-dazo[1,2-a]pyrazin-3-yl)-N-cyclopropyl-2-hydroxybenzamide]",91.3
–,"O=C(NC1CC1)c1ccc(-c2cnc3c(NCC4CCCCO4)nccn23)cc1O (stereo not shown) [Example 7-89, N-cyclopropyl-2-hydroxy-4-{8-[(tetrahydro-2H-pyran-2-ylmethyl)amino]imi-dazo[1,2-a]pyrazin-3-yl}benzamide]",247
29.7,"CCCNc1nccn2c(-c3ccc(C(=O)NC4CC4)c(C)c3)cnc12 [Example 7-90, N-cyclopropyl-2-methyl-4-[8-(propylamino)imidazo[1,2-a]pyrazin-3-yl]benzamide]",–
–,"Cc1cc(-c2cnc3c(NCCO)nccn23)ccc1C(=O)NC1CC1 [Example 7-91, N-cyclopropyl-4-{8-[(2-hydroxyethyl)amino]imi-dazo[1,2-a]pyrazin-3-yl}-2-methylbenzamide]",363
–,"Cc1cc(-c2cnc3c(NCCCN4CCOCC4)nccn23)ccc1C(=O)NC1CC1 [Example 7-92, N-cyclopropyl-2-methyl-4-(8-{[3-(morpholin-4-yl)propyl]amino}imi-dazo[1,2-a]pyrazin-3-yl)benzamide]",389
–,"Cc1cc(-c2cnc3c(NCCC(C)C)nccn23)ccc1C(=O)NC1CC1 [Example 7-93, N-cyclopropyl-2-methyl-4-{8-[(3-methylbutyl)amino]imi-dazo[1,2-a]pyrazin-3-yl}benzamide]",13.2
–,"Cc1cc(-c2cnc3c(NCC4CCCO4)nccn23)ccc1C(=O)NC1CC1 (stereo not shown) [Example 7-94, N-cyclopropyl-2-methyl-4-{8-[(tetrahydrofuran-2-ylmethyl)amino]imi-dazo[1,2-a]pyrazin-3-yl}benzamide]",80.8
–,"Cc1cc(-c2cnc3c(NCCCN4CCCC4=O)nccn23)ccc1C(=O)NC1CC1 [Example 7-95, N-cyclopropyl-2-methyl-4-(8-{[3-(2-oxopyrrolidin-1-yl)propyl]amino}imi-dazo[1,2-a]pyrazin-3-yl)benzamide]",562
–,"COCCNc1nccn2c(-c3ccc(C(=O)NC4CC4)c(C)c3)cnc12 [Example 7-96, N-cyclopropyl-4-{8-[(2-methoxyethyl)amino]imi-dazo[1,2-a]pyrazin-3-yl}-2-methylbenzamide]",229
–,"Cc1cc(-c2cnc3c(NCc4ccccc4F)nccn23)ccc1C(=O)NC1CC1 [Example 7-97, N-cyclopropyl-4-{8-[(2-fluorobenzyl)amino]imi-dazo[1,2-a]pyrazin-3-yl}-2-methylbenzamide]",31.6
–,"Cc1cc(-c2cnc3c(NCc4ccc(F)cc4)nccn23)ccc1C(=O)NC1CC1 [Example 7-98, N-cyclopropyl-4-{8-[(4-fluorobenzyl)amino]imi-dazo[1,2-a]pyrazin-3-yl}-2-methylbenzamide]",39.6
–,"Cc1cc(-c2cnc3c(NCCCCO)nccn23)ccc1C(=O)NC1CC1 [Example 7-99, N-cyclopropyl-4-{8-[(4-hydroxybutyl)amino]imi-dazo[1,2-a]pyrazin-3-yl}-2-methylbenzamide]",70.8
–,Cc1cc(-c2cnc3c(NCC(F)(F)F)nccn23)ccc1C(=O)NC1CC1 [Example 7-100],217
34.1,"Cc1cc(-c2cnc3c(NCc4ccccc4)nccn23)ccc1C(=O)NC1CC1 [Example 7-101, 4-[8-(benzylamino)imidazo[1,2-a]pyrazin-3-yl]-N-cyclopropyl-2-methylbenzamide]",–
–,"Cc1cc(-c2cnc3c(NCc4cccs4)nccn23)ccc1C(=O)NC1CC1 [Example 7-102, N-cyclopropyl-2-methyl-4-{8-[(thiophen-2-ylmethyl)amino]imi-dazo[1,2-a]pyrazin-3-yl}benzamide]",18.7
145,"CCNc1nccn2c(-c3ccc(C(=O)NC4CC4)c(C)c3)cnc12 [Example 7-103, N-cyclopropyl-4-[8-(ethylamino)imidazo[1,2-a]pyrazin-3-yl]-2-methylbenzamide]",–

IC50 (read-out: Mps1 IC50) [nM],SMILES,IC50 (Mps1 IC50 [nM]) [nM]
–,"Cc1cc(-c2cnc3c(NCCCO)nccn23)ccc1C(=O)NC1CC1 [Example 7-104, N-cyclopropyl-4-{8-[(3-hydroxypropyl)amino]imi-dazo[1,2-a]pyrazin-3-yl}-2-methylbenzamide]",124
18.5,"CCCCNc1nccn2c(-c3ccc(C(=O)NC4CC4)c(C)c3)cnc12 [Example 7-105, 4-[8-(butylamino)imidazo[1,2-a]pyrazin-3-yl]-N-cyclopropyl-2-methylbenzamide]",–
–,CC(=O)NCCNc1nccn2c(-c3ccc(C(=O)NC4CC4)c(C)c3)cnc12 [Example 7-106],1470
18.8,"Cc1cc(-c2cnc3c(NCC4CC4)nccn23)ccc1C(=O)NC1CC1 [Example 7-107, N-cyclopropyl-4-{8-[(cyclopropylmethyl)ami-no]imidazo[1,2-a]pyrazin-3-yl}-2-methylbenzamide]",–
–,"Cc1cc(-c2cnc3c(NCc4cccnc4)nccn23)ccc1C(=O)NC1CC1 [Example 7-108, N-cyclopropyl-2-methyl-4-{8-[(pyridin-3-ylmethyl)amino]imi-dazo[1,2-a]pyrazin-3-yl}benzamide]",123
–,"Cc1cc(-c2cnc3c(NCc4ccncc4)nccn23)ccc1C(=O)NC1CC1 [Example 7-109, N-cyclopropyl-2-methyl-4-{8-[(pyridin-4-ylmethyl)amino]imi-dazo[1,2-a]pyrazin-3-yl}benzamide]",166
–,"Cc1cc(-c2cnc3c(NCc4ccco4)nccn23)ccc1C(=O)NC1CC1 [Example 7-110, N-cyclopropyl-4-{8-[(furan-2-ylmethyl)amino]imi-dazo[1,2-a]pyrazin-3-yl}-2-methylbenzamide]",28.1
–,"Cc1cc(-c2cnc3c(NCCC#N)nccn23)ccc1C(=O)NC1CC1 [Example 7-111, 4-{8-[(2-cyanoethyl)amino]imi-dazo[1,2-a]pyrazin-3-yl}-N-cyclopropyl-2-methylbenzamide]",49.7
81.6,"Cc1cc(-c2cnc3c(NCC(F)(F)C(F)(F)F)nccn23)ccc1C(=O)NC1CC1 [Example 7-112, N-cyclopropyl-2-methyl-4-{8-[(2,2,3,3,3-pentafluoropropyl)ami-no]imidazo[1,2-a]pyrazin-3-yl}benzamide]",–
–,"Cc1cc(-c2cnc3c(NCC(O)C(F)(F)F)nccn23)ccc1C(=O)NC1CC1 (stereo not shown) [Example 7-113, N-cyclopropyl-2-methyl-4-{8-[(3,3,3-trifluoro-2-hydroxypropyl)amino]imi-dazo[1,2-a]pyrazin-3-yl}benzamide]",36.7
–,"Cc1cc(-c2cnc3c(NCC(C)O)nccn23)ccc1C(=O)NC1CC1 (stereo not shown) [Example 7-115, N-cyclopropyl-4-{8-[(2-hydroxypropyl)amino]imi-dazo[1,2-a]pyrazin-3-yl}-2-methylbenzamide]",101
–,"COCCCNc1nccn2c(-c3ccc(C(=O)NC4CC4)c(C)c3)cnc12 [Example 7-116, N-cyclopropyl-4-{8-[(3-methoxypropyl)amino]imi-dazo[1,2-a]pyrazin-3-yl}-2-methylbenzamide]",141
196,"Cc1cc(-c2cnc3c(NCCCNC(=O)OC(C)(C)C)nccn23)ccc1C(=O)NC1CC1 [Example 7-117, tert-butyl [3-({3-[4-(cyclopropylcarbamoyl)-3-methylphenyl]imidazo[1,2-a]pyrazin-8-yl}amino)propyl]carbamate]",–
–,"Cc1cc(-c2cnc3c(NCC(F)F)nccn23)ccc1C(=O)NC1CC1 [Example 7-118, N-cyclopropyl-4-{8-[(2,2-difluoroethyl)amino]imi-dazo[1,2-a]pyrazin-3-yl}-2-methylbenzamide]",70.3
–,"Cc1cc(-c2cnc3c(NCc4ccn(C)n4)nccn23)ccc1C(=O)NC1CC1 [Example 7-119, N-cyclopropyl-2-methyl-4-(8-{[(1-methyl-1H-pyrazol-3-yl)methyl]amino}imi-dazo[1,2-a]pyrazin-3-yl)benzamide]",298
–,"Cc1cc(-c2cnc3c(NCc4cnn(C)c4)nccn23)ccc1C(=O)NC1CC1 [Example 7-120, N-cyclopropyl-2-methyl-4-(8-{[(1-methyl-1H-pyrazol-4-yl)methyl]amino}imi-dazo[1,2-a]pyrazin-3-yl)benzamide]",93.4
–,"CCOC(C)CNc1nccn2c(-c3ccc(C(=O)NC4CC4)c(C)c3)cnc12 (stereo not shown) [Example 7-121, N-cyclopropyl-4-{8-[(2-ethoxypropyl)amino]imi-dazo[1,2-a]pyrazin-3-yl}-2-methylbenzamide]",154
